Where two headings read alike, the source gives them in different places. Bridge positions count the residues as written; N and C are the ends. Square brackets hold non-standard residues; d marks the D form. Peptide text beside a SMILES is read from it. * marks the point of attachment. Ileψ(thiazoline)Cys = CC[C@H](C)[C@H](N)C1=N[C@H](C(=O)*)CS1; dOrn = NCCC[C@@H](N)C(=O)O
What was measured:
[1] = tested on: Clostridium perfringens CP-013; type: in vivo, broiler chicken; conditions: for % Weight gain 1 to 14 d / % Weight gain 1 to 28 d / % Weight gain 14 to 28 d: [(final weight − initial weight)/initial weight] × 100; for Mean body weight (g) 1-d: day 1 (starting weight), n = 30
Clostridium perfringens = type: in vivo, broiler chicken; conditions: for Mean CFU per gram of chicken feces on Day 28 (n = 24): final day of study; for Mean CFU per gram of chicken feces on Day 21 (n = 6): five days after final challenge; for Mean CFU per gram of chicken feces on Day 10 (n = 10): pre-challenge

Compound	% Weight gain 1 to 14 d ([1]; 55 ppm in feed) [%]	% Weight gain 1 to 28 d ([1]; 55 ppm in feed) [%]	% Weight gain 14 to 28 d ([1]; 55 ppm in feed) [%]	Mean body weight (g) 1-d ([1]; 55 ppm in feed) [g]	Mean CFU per gram of chicken feces on Day 28 (n = 24) (Clostridium perfringens; 55 ppm in feed) [CFU per gram]	Mean CFU per gram of chicken feces on Day 21 (n = 6) (Clostridium perfringens; 55 ppm in feed)	Mean CFU per gram of chicken feces on Day 10 (n = 10) (Clostridium perfringens; 55 ppm in feed)	% Weight gain 1 to 14 d ([1]; 2 ppm in feed) [%]	% Weight gain 1 to 28 d ([1]; 2 ppm in feed) [%]	% Weight gain 14 to 28 d ([1]; 2 ppm in feed) [%]	Mean body weight (g) 1-d ([1]; 2 ppm in feed) [g]	Mean CFU per gram of chicken feces on Day 28 (n = 24) (Clostridium perfringens; 2 ppm in feed) [CFU per gram]	Mean CFU per gram of chicken feces on Day 21 (n = 6) (Clostridium perfringens; 2 ppm in feed) [CFU per gram]	Mean CFU per gram of chicken feces on Day 10 (n = 10) (Clostridium perfringens; 2 ppm in feed)
CC[C@H](C)[C@H](N)C1=N[C@H](C(=O)N[C@@H](CC(C)C)C(=O)N[C@H](CCC(=O)O)C(=O)N[C@H](C(=O)N[C@H]2CCCCNC(=O)[C@H](CC(N)=O)NC(=O)[C@@H](CC(=O)O)NC(=O)[C@H](Cc3cnc[nH]3)NC(=O)[C@@H](Cc3ccccc3)NC(=O)[C@H]([C@@H](C)CC)NC(=O)[C@@H](CCCN)NC2=O)[C@@H](C)CC)CS1 [Bacitracin] ({Ileψ(thiazoline)Cys}-L[dE]IK[dOrn]I[dF]H[dD]N; lactam 4-C)	941.1	3566.0	252.1	44.4	0.0	2.5 × 10^1 ± 9.6 ^ CFU per gram	8.6 × 10^2 ± 1.6 × 10^2 CFU per gram	–	–	–	–	–	–	–
Virginiamycin	–	–	–	–	–	–	–	1024.7	3532.8	223.0	44.5	0.0	0.0	1.1 × 10^3 ± 2.2 × 10^2 CFU per gram
